In ChEMBL document CHEMBL3430912, “GSK Tres Cantos Anti-Kinetoplastid Screening (TCAKS) Data”:

What was measured:
[1] = system: Trypanosoma cruzi; test: (§1) GSK_TCAKS: pIC50 Trypanosoma cruzi Imaging: Amastigotes/Cell. […] Cells were then washed once with PBS before infection. T. cruzi trypomastigotes, collected at days 5 to 8 after infection from LLC-MK2 parasite infected cultures, were allowed to swim out for 4h at 37C from a centrifuged pellet (2,500 rpm/10 min/room temperature). Trypomastigotes were then collected and counted in a CASY Cell Counter. Trypomastigotes, in supplemented DMEM, were added to H9c2 cultures in a multiplicity of infection of 1 and incubated for 18 h. Cells were washed once with PBS before incubation of the infected H9c2 monolayer with trypsin (Life-Technologies) to detach cells from the flask. Cells were counted in a CASY Cell Counter using a 150 um capillary and their density set at 5 * 10^4 cells per mL in supplemented assay DMEM. Infected H9c2 were dispensed into 384-well poly-lysine coated assay plates at 50uL per well using a Multidrop Combi dispenser. After seeding them, the plates were incubated at 37C, 5% CO2 for 72h. Cultures were then fixed and stained by addition of 50 uL of a solution containing 8% formaldehyde and 4 uM DRAQ5 DNA dye (BioStatus, UK) per well. […] Five images were collected per well for reliable statistical analysis. Automated image analysis was performed with a script developed on Acapella High Content Imaging and Analysis Software (PerkinElmer). Output: number of amastigotes per cell as infection level measurement.; format: functional, organism-based, Rattus norvegicus; conditions: H9c2, 4 h
[2] = system: Trypanosoma cruzi; test: as §1, with “H2C9” for “Trypanosoma cruzi”, “H9c2 Host Cardiomyocytes.” for “Amastigotes/Cell.”, “Number” for “number”, “H9c2 Host Cardiomyocytes nuclei to determine drug-related cytotoxicity.” for “amastigotes per cell as infection level measurement.”; format: functional, organism-based, Rattus norvegicus; conditions: H9c2, 4 h
[3] = system: Trypanosoma brucei brucei; test: GSK_TCAKS: pIC50 Trypanosoma brucei viability assay using luminiscence. Assay plates (1536-well) were prepared. T. brucei cultures were harvested and counted in a CASY cell counter. A parasite suspension was prepared at a final concentration of 5 * 10^4 cells/mL in complete HMI9 medium and 6uL was dispensed to all wells containing compounds using a Multidrop Combi dispenser. 6uL of HMI9 media with 0.4% DMSO were dispensed to control columns. Plates were incubated for 24 h at 37C, 5% CO2 then tempered for 10 min at room temperature. ATP content was quantified by adding 4 uL of CellTiter-Glo Reagent (Promega) according to the manufacturer's instructions. Luminescence was measured using a ViewLux.; format: functional, organism-based; conditions: Lister 427, CASY
[4] = system: Trypanosoma brucei brucei; test: GSK_TCAKS: pIC50 Trypanosoma brucei viability assay using fluorescence intensity. Assay plates (1536-well) were prepared by dispensing 25nL of compound solution per well using an Echo acoustic dispenser (Labcyte).; format: functional, organism-based; conditions: Lister 427, 2 h
[5] = system: Leishmania donovani; test: (§2) GSK_TCAKS: pIC50 Leishmania donovani Imaging: Infected Macrophages. Assay plates (384-well) were prepared by adding 250nL of compound to each well. For single shot assay, the final compound concentration was 5 uM. […] Automated image analysis was performed with a script developed on Acapella High Content Imaging and Analysis Software (PerkinElmer). Output: Percent of infected macrophage cells were reported for each well.; format: functional, organism-based, Homo sapiens; conditions: THP-1
[6] = system: NIH3T3; test: GSK_TCAKS: pIC50 NIH 3T3 cell line viability assay using luminiscence. Tissue culture surface treated assay plates (1536-well) were used. […] The 100% cells survival control was determined exposing the host-cells to a 0.5% DMSO concentration, whereas the 100% toxicity control was achieved by seeding the cells in presence of Amphotericin B at 50uM. Plates were incubated for four days at 37C, 5% CO2. The assay readout was developed by addition of 5uL of CellTiter-Glo Reagent following the manufacturer's instructions. Luminiscence was measured using a ViewLux.; format: functional, cell-based; conditions: Mus musculus, NIH3T3, 96 h
[7] = system: Leishmania donovani; test: as §2, with “THP-1 Host” for “Infected”, “THP-1 cell count” for “Percent of infected macrophage cells”; format: functional, organism-based, Homo sapiens
[8] = system: Leishmania donovani; test: GSK_TCAKS: pIC50 Leishmania donovani viability assay using fluorescence intensity. Assay plates (1536-well) were prepared by adding 30nL per well of compound. For single shot assay, the final compound concentration was 5uM. […] Briefly, eGFP LdBOB axenic amastigotes were harvested, fixed and counted in a CASY cell counter (Roche-Applied Science). A final concentration of 1.5 * 10^5 cells per well were prepared in amastigote media containing 500 U/mL penicillin/streptomycin (Invitrogen) and 6uL was dispensed to each experimental well using a Multidrop Combi dispenser (Thermo Scientific). 6uL of assay media was dispensed to control columns used as reference for 100% compound response. Following incubation for 72 h at 37C, 5% CO2, 2 uL of resazurin was added to each well at a final concentration of 0.5 mM in phosphate buffered saline (PBS) with IGEPAL (Sigma-Aldrich), 0.05% (v/v).; format: functional, organism-based
[9] = GSK_TCAKS: pIC50 HepG2 human cell line viability assay using luminiscence. […] Seeding density was checked to ensure that new mono-layers were not more than 50% confluent at the time of harvesting. Cell suspension was added to 500 mL of the same medium at a final density of 1.2 * 10^5 cells/mL. This cell suspension was dispensed (25 uL, 3000 cells per well) into 384-well clear-bottom plates using a Multidrop Combi dispenser. Prior to addition of the cell suspension, the screening compounds (250 nL) were pre-dispensed into the plates with an Echo liquid handler. Plates were incubated for 48 h at 37C, 5% CO2. After incubation, plates equilibrated at room temperature for 30 min before proceeding to develop the luminescent signal. The signal developer, CellTiter-Glo Reagent, was allowed to equilibrate at room temperature for 30 min and added to the plates (25uL per well) using a Multidrop Combi dispenser. Plates were left for 10 min at room temperature for stabilization and then read using a ViewLux.; format: toxicity, cell-based
[10] = system: Leishmania donovani; test: as §2, with “Amastigotes/Macrophages.” for “Infected Macrophages.”, “Average number” for “Percent”, “amastigotes per” for “infected”, “cell” for “cells”; format: functional, organism-based, Homo sapiens; conditions: THP-1
[11] = system: Trypanosoma cruzi; test: GSK_TCAKS: pIC50 Trypanosoma cruzi viability assay using beta-GAL activity. This assay was run at single shot at 5uM compound concentration per well. The biological reagents consisted of NIH-3T3 host cells and trypomastigotes parasitic cells; both cell types were set to a 3.3 * 10^5 cells/mL dilution in assay DMEM by means of a CASY cell counter device using a 60um capillary. 6 uL of the mixture were dispensed per well (about 1 * 10^3 host-cells and 1 * 10^3 parasites) with a Multidrop Combi dispenser. […] In all wells, the percentage of DMSO never exceeded 0.5%. Plates incubated for four days at 37C, 5% CO2. The substrate used for the assay fluorescence intensity (FLINT) readout was resorufin-beta-D-galactopiranoside (Sigma-Aldrich) at 5uM per well. It was diluted in PBS supplemented with the soft detergent Igepal (Fluka).; format: functional, organism-based, Mus musculus; conditions: Tulahuen, NIH3T3
[12] = system: Trypanosoma cruzi; test: GSK_TCAKS: pIC50 Trypanosoma cruzi Imaging: Infected Cells. […] Cells were then washed once with PBS before infection. T. cruzi trypomastigotes, collected at days 5 to 8 after infection from LLC-MK2 parasite infected cultures, were allowed to swim out for 4h at 37C from a centrifuged pellet (2,500 rpm/10 min/room temperature). Trypomastigotes were then collected and counted in a CASY Cell Counter. Trypomastigotes, in supplemented DMEM, were added to H9c2 cultures in a multiplicity of infection of 1 and incubated for 18 h. Cells were washed once with PBS before incubation of the infected H9c2 monolayer with trypsin (Life-Technologies) to detach cells from the flask. Cells were counted in a CASY Cell Counter using a 150 um capillary and their density set at 5 * 10^4 cells per mL in supplemented assay DMEM. Infected H9c2 were dispensed into 384-well poly-lysine coated assay plates at 50uL per well using a Multidrop Combi dispenser. After seeding them, the plates were incubated at 37C, 5% CO2 for 72h. Cultures were then fixed and stained by addition of 50 uL of a solution containing 8% formaldehyde and 4 uM DRAQ5 DNA dye (BioStatus, UK) per well. […] Five images were collected per well for reliable statistical analysis. Automated image analysis was performed with a script developed on Acapella High Content Imaging and Analysis Software (PerkinElmer). Output: percentage of infected cells per well as a second infection marker.; format: functional, organism-based, Rattus norvegicus; conditions: H9c2, 4 h
[13] = target: Sterol 14-alpha demethylase (Trypanosoma cruzi (strain CL Brener), UniProt Q7Z1V1); test: GSK_TCAKS: pIC50 CYP51 from Trypanosoma cruzi.; format: functional
Chain of Sterol 14-alpha demethylase (Q7Z1V1 whole entry): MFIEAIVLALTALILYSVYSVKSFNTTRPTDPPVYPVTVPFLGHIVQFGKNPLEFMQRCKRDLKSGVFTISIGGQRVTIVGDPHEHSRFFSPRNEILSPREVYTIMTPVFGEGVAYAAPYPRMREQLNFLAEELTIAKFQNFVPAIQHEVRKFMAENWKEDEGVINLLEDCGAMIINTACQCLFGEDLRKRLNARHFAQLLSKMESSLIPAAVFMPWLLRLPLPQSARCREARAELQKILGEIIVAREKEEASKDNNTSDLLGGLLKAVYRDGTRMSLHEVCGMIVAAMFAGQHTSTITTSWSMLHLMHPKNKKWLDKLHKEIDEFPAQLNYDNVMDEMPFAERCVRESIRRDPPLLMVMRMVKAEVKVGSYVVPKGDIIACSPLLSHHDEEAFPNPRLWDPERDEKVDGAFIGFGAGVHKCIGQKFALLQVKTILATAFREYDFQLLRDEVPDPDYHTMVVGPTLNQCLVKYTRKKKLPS

## Cc1ccc(C)c(-n2nnnc2Sc2nc([N+](=O)[O-])nn2C)c1
[1]
  IC50: 0.251 µM
[2]
  IC50: > 50.1 µM
[3]
  IC50: 15.8 µM
[4]
  IC50: 12.6 µM
[5]
  IC50: > 50.1 µM
[6]
  IC50: > 50.1 µM
[7]
  IC50: > 50.1 µM
[8]
  IC50: > 50.1 µM
[9]
  IC50 at 48 h: > 100 µM
[10]
  IC50: > 50.1 µM
[11]
  IC50: 0.501 µM
[12]
  IC50: 0.794 µM
[13]
  IC50: > 100 µM

## CN(Cc1ccc(C(N)=O)cc1)C(c1ccc(F)cc1)c1cccnc1 (stereo unspecified)
[1]
  IC50: 0.2 µM
[2]
  IC50: > 50.1 µM
[3]
  IC50: > 39.8 µM
[4]
  IC50: > 39.8 µM
[5]
  IC50: > 50.1 µM
[6]
  IC50: 31.6 µM
[7]
  IC50: > 50.1 µM
[8]
  IC50: > 50.1 µM
[9]
  IC50 at 48 h: > 100 µM
[10]
  IC50: > 50.1 µM
[11]
  IC50: 0.158 µM
[12]
  IC50: 0.251 µM
[13]
  IC50: 0.1 µM

## Cc1ccccc1OCC(=O)N1CCCN(c2cccnn2)CC1
[1]
  IC50: 0.501 µM
[2]
  IC50: > 50.1 µM
[3]
  IC50: > 39.8 µM
[4]
  IC50: > 39.8 µM
[5]
  IC50: > 50.1 µM
[6]
  IC50: 50.1 µM
[7]
  IC50: > 50.1 µM
[8]
  IC50: 12.6 µM
[9]
  IC50 at 48 h: > 100 µM
[10]
  IC50: > 50.1 µM
[11]
  IC50: 0.316 µM
[12]
  IC50: 0.631 µM
[13]
  IC50: 0.0794 µM

## Cc1ccc(S(=O)(=O)Nc2ccc(CN3CCN(C(=O)c4cccc(C#N)c4)CC3)cc2)cc1
[1]
  IC50: 0.398 µM
[2]
  IC50: > 50.1 µM
[3]
  IC50: 0.316 µM
[4]
  IC50: 0.158 µM
[5]
  IC50: > 50.1 µM
[6]
  IC50: > 50.1 µM
[7]
  IC50: > 50.1 µM
[8]
  IC50: 10 µM
[9]
  IC50 at 48 h: > 100 µM
[10]
  IC50: 25.1 µM
[11]
  IC50: 0.501 µM
[12]
  IC50: 0.501 µM
[13]
  IC50: > 100 µM

## Cc1nccn1C1CCCN(C(=O)c2cc3c(F)cccc3s2)C1 (stereo unspecified)
[1]
  IC50: 0.794 µM
[2]
  IC50: > 50.1 µM
[3]
  IC50: > 39.8 µM
[4]
  IC50: > 39.8 µM
[5]
  IC50: > 50.1 µM
[6]
  IC50: 20 µM
[7]
  IC50: > 50.1 µM
[8]
  IC50: 5.01 µM
[9]
  IC50 at 48 h: > 100 µM
[10]
  IC50: > 50.1 µM
[11]
  IC50: 0.631 µM
[12]
  IC50: 1 µM
[13]
  IC50: 50.1 µM

## Cc1cc2cncn2c(C2CCCCN2C(=O)c2cccs2)n1 (stereo unspecified)
[1]
  IC50: 0.0631 µM
[2]
  IC50: > 50.1 µM
[3]
  IC50: > 39.8 µM
[4]
  IC50: > 39.8 µM
[5]
  IC50: > 50.1 µM
[6]
  IC50: > 50.1 µM
[7]
  IC50: > 50.1 µM
[8]
  IC50: 0.398 µM
[9]
  IC50 at 48 h: > 100 µM
[10]
  IC50: > 50.1 µM
[11]
  IC50: 0.0251 µM
[12]
  IC50: 0.0631 µM
[13]
  IC50: 0.1 µM

## CC(Cn1ccnc1)NC(=O)C1CC1c1cccc(Cl)c1Cl (stereo unspecified)
[1]
  IC50: 0.2 µM
[2]
  IC50: > 50.1 µM
[3]
  IC50: > 39.8 µM
[4]
  IC50: > 39.8 µM
[5]
  IC50: > 50.1 µM
[6]
  IC50: > 50.1 µM
[7]
  IC50: > 50.1 µM
[8]
  IC50: 15.8 µM
[9]
  IC50 at 48 h: > 100 µM
[10]
  IC50: 10 µM
[11]
  IC50: 0.141 µM
[12]
  IC50: 0.251 µM
[13]
  IC50: 0.126 µM
